Results: ChEMBL document CHEMBL1201862, “PubChem BioAssay data set” (2004)
Calls of active or inactive are those of the source.

Assays:
[1] = general mammalian cell viability loss – inhibitor set, cherry-pick, set 2, cytotoxicity control for miR-122 modulator project, dose response (AID 720697); type: functional, cell-based
BJ [2] = assay: BJ-TERT-LT-ST fibroblast viability loss – cell-based, RAS-independent, luminescence, dose response (AID 1935); type: functional; conditions: Homo sapiens;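 further: BJ fibroblasts immortalized with TERT plus LT and ST oncogenes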
INS1 = assay: INS-1E survival protection against cytokine death – cell-based, luminescence, retest, dose response (AID 449756); type: functional; conditions: Rattus norvegicus;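 further: cell death triggered by IL-1 beta plus TNF-alpha plus IFN-gamma mixture; protective hits raise ATP signal compared with cytokine alone wells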
[3] = activation of miR-122 Renilla sensor silencing – cell-based, Huh7 psiCHECK-miR122, Renilla luciferase, cherry-picked, dose response (AID 651956); type: functional;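 further: huh7 hepatoma cells stably carrying a psiCHECK-2 miR-122 sensor plasmid; renilla luciferase signal reporting endogenous miR-122 activity after 48 h compound exposure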
[4] = HEK-293T cell viability reduction – luminescence, B-cell screen hits, cytotoxicity control for BCR NF-kB inhibitor project, dose response (AID 489021); type: functional, cell-based;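 further: HEK-293T cells carrying an NF-kB luciferase reporter; cells exposed to compound for about 14 hours before viability readout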
BJ [5] = assay: BJ-TERT fibroblast viability loss – cell-based, RAS-independent, luminescence, dose response (AID 1933); type: functional; conditions: Homo sapiens
[6] = tested on: Streptococcus sp. 'group A'; assay: Streptococcus pyogenes SK(-)GAS viability under kanamycin – luminescence, BacTiterGlo, confirmation, counter-screen for streptokinase expression inhibitor project, dose response (AID 1900); type: functional, organism-based
[7] = loss of viability in HepG2 cells – cell-based, CellTiter-Glo, cherry-picked, cytotoxicity control for Shn3 inhibitor project, dose response (AID 624134); type: functional
[8] = non-specific 3'UTR reporter inhibition in Clone20-Shn3RL – cell-based, Renilla luciferase, cherry-picked, counter-screen for Shn3 inhibitor project, dose response (AID 624133); type: functional
BJ [9] = assay: cells; type: functional, cell-based; conditions: Homo sapiens
Streptokinase A = target: T1, Streptokinase A (Streptococcus pyogenes serotype M1, UniProt P10520); assay: viability-normalized secreted streptokinase activity reduction – plasminogen activation absorbance, OD405, dose response (AID 1914); type: functional, Streptococcus pyogenes M1 GAS;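 further: secreted streptokinase activity via plasminogen activation per viability signal from cell pellet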
T1 sequence (P10520 whole entry): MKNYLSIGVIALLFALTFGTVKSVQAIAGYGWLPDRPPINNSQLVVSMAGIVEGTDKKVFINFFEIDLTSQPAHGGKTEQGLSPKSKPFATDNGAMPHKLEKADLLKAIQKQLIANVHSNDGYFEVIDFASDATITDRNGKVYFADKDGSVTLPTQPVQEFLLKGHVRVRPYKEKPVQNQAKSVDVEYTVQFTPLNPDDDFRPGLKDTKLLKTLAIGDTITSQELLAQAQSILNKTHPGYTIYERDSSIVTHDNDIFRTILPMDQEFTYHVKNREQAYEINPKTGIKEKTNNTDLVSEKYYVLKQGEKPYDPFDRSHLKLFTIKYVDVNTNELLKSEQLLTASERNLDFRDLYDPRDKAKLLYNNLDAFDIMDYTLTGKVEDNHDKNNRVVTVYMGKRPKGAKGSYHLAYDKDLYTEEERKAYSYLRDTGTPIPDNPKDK

[10] = general mammalian cell viability loss – activator set, cherry-pick, cytotoxicity control for miR-122 modulator project, dose response (AID 720690); type: functional, cell-based;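 further: HEK293T human cells scored for general mammalian cytotoxicity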
[11] = reduced cellular PGC1a acetyl-lysine signal – cell-based, cherry-picked samples, dose response (AID 720514); type: functional;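 further: potency may reflect raised or lowered acetylation signal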
[12] = DRD fibroblast viability loss – cell-based, non-viral oncogenic, luminescence, dose response (AID 1934); type: functional; conditions: Homo sapiens
[13] = reduction of Shn3 3'UTR-driven luciferase in osteoblasts – cell-based, Clone20 osteoblasts, firefly luciferase, cherry-picked, dose response (AID 624132); type: functional;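 further: firefly luciferase luminescence from reporter carrying the Shn3 3'UTR in osteoblasts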
Streptococcus = assay: GAS UMAA2166 growth inhibition – luminescence, BacTiterGlo, counter-screen for streptokinase expression inhibitor project, dose response (AID 1915); type: functional, organism-based;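 further: potency for reduction of bacterial viability or growth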
Major prion protein = Major prion protein (Homo sapiens, UniProt P04156); type: functional, cell-based
[14] = target: T2, Ubiquitin-conjugating enzyme E2 N (Homo sapiens, UniProt P61088); type: functional;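 further: Dose-response confirmation in a TR-FRET assay detecting UBC13-driven polyubiquitin chain formation, inhibition measured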
T2 sequence (P61088 whole entry): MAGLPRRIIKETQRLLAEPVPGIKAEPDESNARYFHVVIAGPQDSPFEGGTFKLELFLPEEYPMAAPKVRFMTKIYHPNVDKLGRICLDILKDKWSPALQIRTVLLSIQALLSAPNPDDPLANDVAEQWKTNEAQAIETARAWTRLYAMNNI

[15] = growth inhibition of yeast DHODH-expressing 3D7 parasites – SYBR Green, dry powder samples, dose response (AID 1159570); type: functional, cell-based;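 further: parasite growth measured after 72 hours of compound exposure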
[16] = P. falciparum Dd2 growth inhibitors, dose response, SYBR Green, cherry-picked samples (AID 1159567); type: functional, cell-based
[17] = growth inhibition of PfATP4-mutant resistant parasites – NITD609-resistant line, SYBR Green, dry powder, dose response (AID 1159571); type: functional, cell-based;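 further: parasites synchronized at ring stage by sorbitol before testing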
[18] = Dd2 malaria parasite growth inhibition potency – SYBR Green, dry powder samples, dose response (AID 1159566); type: functional, cell-based;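 further: potency for growth inhibition with lower SYBR green DNA signal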
[19] = toxicity to human HepG2 hepatoma cells – cell-based, plate reader, dry powder samples, cytotoxicity control, dose response (AID 1159569); type: functional;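 further: inhibitor potency with signal falling toward the positive control level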
[20] = toxicity to human hepatoma HepG2 cells – cell-based, cherry-picked samples, cytotoxicity control, dose response (AID 1159577); type: functional

With `COc1cccc(N2CCN(c3[nH]cnc4c5cc(F)ccc5nc3-4)CC2C)c1` (configuration not stated) the AC50 [1] was 3.06 µM (active), the EC50 (BJ [2]) was 8.16 µM (active) and the AC50 (INS1) was 2.25 µM (active). For the same compound, the AC50 [3] was 6.99 µM (active), the IC50 [4] was 1.83 µM (active) and the EC50 (BJ [5]) was 6.14 µM (inconclusive). The EC50 [6] was 8 µM (active), the AC50 [7] was 9.99 µM (active) and the AC50 [8] was 0.49 µM (active). For the same compound, the EC50 (BJ [9]) was 9.04 µM (active), the EC50 (Streptokinase A) was 15.3 µM (active) and the AC50 [10] was 3.35 µM (active). For the same compound, the AC50 [11] was 6.56 µM (active), the EC50 [12] was 6.44 µM (active) and the AC50 [13] was 1.31 µM (active). The EC50 (Streptococcus) was 48.4 µM (active).
With `Cc1ccc(NC(=O)CSc2ncnc3ccccc23)cc1S(=O)(=O)N1CCOCC1` the IC50 (cells) was > 138 µM (inactive), the IC50 (Major prion protein) was 8.72 µM (active) and the IC50 [14] was > 20 µM (inactive).
With `NC(=O)COC(=O)CC(NC(N)=O)c1ccc(Cl)cc1` (configuration not stated) the AC50 [11] was 28.7 µM (active).
With `COc1cccc(NC(=O)N[C@H]2CC[C@H](CC(=O)Nc3ccc(-c4ccccc4)cc3)O[C@@H]2CO)c1` the AC50 [1] was 0.479 µM (active) and the AC50 [10] was 44.3 µM (active).
In the case of `Cc1nc(N2[C@H](CO)[C@H](c3ccccc3)[C@H]2CNCC2CCCCC2)sc1C`, the AC50 [15] is reported as 1.03 µM (active), the AC50 [16] is reported as 1.13 µM (active) and the AC50 [17] is reported as 0.691 µM (active). For the same compound, the AC50 [18] was 0.595 µM (active), the AC50 [19] was 71.2 µM (active) and the AC50 [20] was > 42 µM (inactive).
With `C[C@H]1CN([C@@H](C)CO)S(=O)(=O)c2ccc(C#CC3CCCCC3)cc2O[C@H]1CN(C)C` the AC50 [15] was 8.69 µM (active), the AC50 [17] was 2.42 µM (active) and the AC50 [18] was 4.6 µM (active). The AC50 [19] was > 100 µM (inactive).
